Results published in the NIST ThermoML archive (doi:10.1016/j.jct.2006.01.011).
± gives the expanded uncertainty stated by the source.

Assays:
[1] = refractive index (Na D-line) (dimensionless); conditions: 293.15 K; 101.33 kPa; Liquid; Standard Abbe refractometry
[2] = 293.15 K, 101.33 kPa, Liquid; for viscosity: Capillary tube (Ostwald / Ubbelohde) method
[3] = wn = mass fraction of the nth substance listed; conditions: 293.15 K, 101.33 kPa, Liquid; for viscosity: Capillary tube (Ostwald / Ubbelohde) method; for mass density: Vibrating tube method
[4] = cn = amount concentration of the nth substance listed, in mol/dm3; conditions: 293.15 K, 101 kPa, Liquid; for viscosity: Capillary tube (Ostwald / Ubbelohde) method; for electrical conductivity: Frequency=0.001 MHz, digital bridge-type conductivity meter; for mass density: Vibrating tube method

SMILES: OCCO [1,2-ethanediol]
- refractive index [1]: 1.4319 ± 0.0007
- viscosity [2]: 20.81 ± 0.3 mPa·s
- mass density ([2]; Vibrating tube method): 1113.23 ± 0.3 kg/m3

SMILES: OCCO [1,2-ethanediol] + O
- viscosity ([3]; w1 = 0.1): 1.293 ± 0.009 mPa·s
- viscosity ([3]; w1 = 0.2): 1.671 ± 0.012 mPa·s
- viscosity ([3]; w1 = 0.3): 2.177 ± 0.016 mPa·s
- viscosity ([3]; w1 = 0.4): 2.837 ± 0.022 mPa·s
- viscosity ([3]; w1 = 0.5): 3.558 ± 0.029 mPa·s
- viscosity ([3]; w1 = 0.6): 4.724 ± 0.041 mPa·s
- viscosity ([3]; w1 = 0.7): 6.36 ± 0.06 mPa·s
- viscosity ([3]; w1 = 0.8): 8.003 ± 0.081 mPa·s
- viscosity ([3]; w1 = 0.9): 14 ± 0.17 mPa·s
- mass density ([3]; w1 = 0.1): 1011.1 ± 0.05 kg/m3
- mass density ([3]; w1 = 0.2): 1024.49 ± 0.05 kg/m3
- mass density ([3]; w1 = 0.4): 1049.89 ± 0.12 kg/m3
- mass density ([3]; w1 = 0.5): 1062.42 ± 0.09 kg/m3
- mass density ([3]; w1 = 0.7): 1085.2 ± 0.11 kg/m3
- mass density ([3]; w1 = 0.8): 1095.34 ± 0.11 kg/m3
- mass density ([3]; w1 = 0.9): 1103.7 ± 0.13 kg/m3

SMILES: O [water]
- viscosity [2]: 1.008 ± 0.007 mPa·s

SMILES: O [water] + OCCO
- viscosity ([3]; w2 = 0): 1.008 ± 0.007 mPa·s

SMILES: O=S(=O)([O-])[O-].[Zn+2] [zinc sulfate] + O
- viscosity ([4]; c1 = 0.0084): 1.015 ± 0.007 mPa·s
- viscosity ([4]; c1 = 0.0194): 1.022 ± 0.007 mPa·s
- viscosity ([4]; c1 = 0.0403): 1.036 ± 0.007 mPa·s
- viscosity ([4]; c1 = 0.0545): 1.045 ± 0.007 mPa·s
- viscosity ([4]; c1 = 0.0714): 1.054 ± 0.007 mPa·s
- viscosity ([4]; c1 = 0.0795): 1.062 ± 0.007 mPa·s
- viscosity ([4]; c1 = 0.0979): 1.074 ± 0.008 mPa·s
- viscosity ([4]; c1 = 0.1391): 1.103 ± 0.008 mPa·s
- viscosity ([4]; c1 = 0.1756): 1.127 ± 0.008 mPa·s
- viscosity ([4]; c1 = 0.1998): 1.144 ± 0.008 mPa·s
- electrical conductivity ([4]; c1 = 5e-05): 0.00119 ± 1e-05 S/m
- electrical conductivity ([4]; c1 = 0.00011): 0.00229 ± 1e-05 S/m
- electrical conductivity ([4]; c1 = 0.00019): 0.00391 ± 2e-05 S/m
- electrical conductivity ([4]; c1 = 0.00042): 0.0084 ± 3e-05 S/m
- electrical conductivity ([4]; c1 = 0.00063): 0.01218 ± 5e-05 S/m
- electrical conductivity ([4]; c1 = 0.00083): 0.0154 ± 6e-05 S/m
- electrical conductivity ([4]; c1 = 0.00101): 0.01833 ± 7e-05 S/m
- electrical conductivity ([4]; c1 = 0.00127): 0.02201 ± 9e-05 S/m
- mass density ([4]; c1 = 5e-05): 998.22 ± 0.19 kg/m3
- mass density ([4]; c1 = 0.00011): 998.23 ± 0.19 kg/m3
- mass density ([4]; c1 = 0.00019): 998.25 ± 0.18 kg/m3
- mass density ([4]; c1 = 0.00042): 998.29 ± 0.18 kg/m3
- mass density ([4]; c1 = 0.00063): 998.32 ± 0.16 kg/m3
- mass density ([4]; c1 = 0.00083): 998.36 ± 0.17 kg/m3
- mass density ([4]; c1 = 0.00101): 998.39 ± 0.16 kg/m3
- mass density ([4]; c1 = 0.00127): 998.41 ± 0.15 kg/m3
- mass density ([4]; c1 = 0.0084): 999.63 ± 0.18 kg/m3
- mass density ([4]; c1 = 0.0194): 1001.48 ± 0.17 kg/m3
- mass density ([4]; c1 = 0.0403): 1004.95 ± 0.18 kg/m3
- mass density ([4]; c1 = 0.0545): 1007.37 ± 0.15 kg/m3
- mass density ([4]; c1 = 0.0714): 1009.43 ± 0.16 kg/m3
- mass density ([4]; c1 = 0.0795): 1011.4 ± 0.19 kg/m3
- mass density ([4]; c1 = 0.0979): 1014.39 ± 0.17 kg/m3
- mass density ([4]; c1 = 0.1391): 1021.1 ± 0.17 kg/m3
- mass density ([4]; c1 = 0.1756): 1027.12 ± 0.17 kg/m3
- mass density ([4]; c1 = 0.1998): 1030.93 ± 0.17 kg/m3
